Organism: Rattus norvegicus
Experiment: DrugMatrix - Regimen: Daily Repeat
Format: toxicity, organism-based, Sprague-Dawley
Set-up: regimen Daily Repeat, gender Male, age 6-8 weeks
Details: in vivo, sc, route subcutaneous, […]; for ABSOLUTE BASOPHIL / ABSOLUTE EOSINOPHIL / ABSOLUTE LYMPHOCYTE / ABSOLUTE MONOCYTE / ABSOLUTE SEGMENTED NEUTROPHIL / BASOPHIL / EOSINOPHIL / ERYTHROCYTE COUNT / HEMATOCRIT / HEMOGLOBIN / LEUKOCYTE COUNT / LYMPHOCYTE / MEAN CORPUSCULAR HEMOGLOBIN / MEAN CORPUSCULAR HEMOGLOBIN CONCENTRATION / MEAN CORPUSCULAR VOLUME / MONOCYTE / NEUTROPHIL / NUCLEATED RED BLOOD CELLS / PLATELET COUNT: tissue Blood; for ALANINE AMINOTRANSFERASE / ALBUMIN / ALKALINE PHOSPHATASE / ASPARTATE AMINOTRANSFERASE / BLOOD UREA NITROGEN / CARBON DIOXIDE / CHLORIDE / CHOLESTEROL / CREATINE PHOSPHOKINASE / CREATININE / GLUCOSE / LACTATE DEHYDROGENASE / LIPASE / PHOSPHORUS / POTASSIUM / SODIUM / TOTAL BILIRUBIN / TOTAL PROTEIN / URIC ACID: tissue Plasma
[1] = 0 mg/kg, 72 h, dose level Control, time 3 day
[2] = 0 mg/kg, 120 h, dose level Control, time 5 day
[3] = 29 mg/kg, 72 h, dose level Low, time 3 day

Nc1nc2c(ncn2CCC(CO)CO)c(=O)[nH]1 [PENCICLOVIR]
ABSOLUTE BASOPHIL [1]: 0 CELLS/uL
ABSOLUTE EOSINOPHIL [1]: 42.67 CELLS/uL
ABSOLUTE LYMPHOCYTE [1]: 10202 CELLS/uL
ABSOLUTE MONOCYTE [1]: 261.5 CELLS/uL
ABSOLUTE SEGMENTED NEUTROPHIL [1]: 2193.83 CELLS/uL
BASOPHIL [1]: 0%
EOSINOPHIL [1]: 0.33%
ERYTHROCYTE COUNT [1]: 5.63 x10E6/uL
HEMATOCRIT [1]: 35.35%
HEMOGLOBIN [1]: 13.07 G/DL
LEUKOCYTE COUNT [1]: 12.7 x10E3/uL
LYMPHOCYTE [1]: 81.17%
MEAN CORPUSCULAR HEMOGLOBIN [1]: 23.23 pg
MEAN CORPUSCULAR HEMOGLOBIN CONCENTRATION [1]: 36.97 G/DL
MEAN CORPUSCULAR VOLUME [1]: 62.82 fL
MONOCYTE [1]: 2%
NEUTROPHIL [1]: 16.5%
NUCLEATED RED BLOOD CELLS [1]: 0 /100WBC
PLATELET COUNT [1]: 1180.33 x10E3/uL
ALANINE AMINOTRANSFERASE [1]: 48.67 u/L
ALBUMIN [1]: 4.08 G/DL
ALKALINE PHOSPHATASE [1]: 360.67 u/L
ASPARTATE AMINOTRANSFERASE [1]: 85.5 u/L
BLOOD UREA NITROGEN [1]: 17.83 mg/dL
CARBON DIOXIDE [1]: 26.17 mmol/L
CHLORIDE [1]: 101.83 MEQ/L
CHOLESTEROL [1]: 71 mg/dL
CREATINE PHOSPHOKINASE [1]: 515.17 u/L
CREATININE [1]: 0.22 mg/dL
GLUCOSE [1]: 192.5 mg/dL
LACTATE DEHYDROGENASE [1]: 214.67 u/L
LIPASE [1]: 8.5 u/L
PHOSPHORUS [1]: 12.95 mg/dL
POTASSIUM [1]: 6.39 MEQ/L
SODIUM [1]: 142.38 MEQ/L
TOTAL BILIRUBIN [1]: 0.18 mg/dL
TOTAL PROTEIN [1]: 5.95 G/DL
URIC ACID [1]: 1.83 mg/dL
ABSOLUTE BASOPHIL [2]: 0 CELLS/uL
ABSOLUTE EOSINOPHIL [2]: 188.5 CELLS/uL
ABSOLUTE LYMPHOCYTE [2]: 12360.83 CELLS/uL
ABSOLUTE MONOCYTE [2]: 64.33 CELLS/uL
ABSOLUTE SEGMENTED NEUTROPHIL [2]: 1986.33 CELLS/uL
BASOPHIL [2]: 0%
EOSINOPHIL [2]: 1.33%
ERYTHROCYTE COUNT [2]: 5.52 x10E6/uL
HEMATOCRIT [2]: 35.82%
HEMOGLOBIN [2]: 13.25 G/DL
LEUKOCYTE COUNT [2]: 14.6 x10E3/uL
LYMPHOCYTE [2]: 84.5%
MEAN CORPUSCULAR HEMOGLOBIN [2]: 24.05 pg
MEAN CORPUSCULAR HEMOGLOBIN CONCENTRATION [2]: 36.98 G/DL
MEAN CORPUSCULAR VOLUME [2]: 64.97 fL
MONOCYTE [2]: 0.5%
NEUTROPHIL [2]: 13.67%
NUCLEATED RED BLOOD CELLS [2]: 0 /100WBC
PLATELET COUNT [2]: 1297.83 x10E3/uL
ALANINE AMINOTRANSFERASE [2]: 51.17 u/L
ALBUMIN [2]: 4.08 G/DL
ALKALINE PHOSPHATASE [2]: 393.17 u/L
ASPARTATE AMINOTRANSFERASE [2]: 111 u/L
BLOOD UREA NITROGEN [2]: 18.17 mg/dL
CARBON DIOXIDE [2]: 25 mmol/L
CHLORIDE [2]: 105.17 MEQ/L
CHOLESTEROL [2]: 65.5 mg/dL
CREATINE PHOSPHOKINASE [2]: 911.5 u/L
CREATININE [2]: 0.21 mg/dL
GLUCOSE [2]: 183 mg/dL
LACTATE DEHYDROGENASE [2]: 189 u/L
LIPASE [2]: 8.33 u/L
PHOSPHORUS [2]: 12.78 mg/dL
POTASSIUM [2]: 6.05 MEQ/L
SODIUM [2]: 144.57 MEQ/L
TOTAL BILIRUBIN [2]: 0.25 mg/dL
TOTAL PROTEIN [2]: 5.83 G/DL
URIC ACID [2]: 1.58 mg/dL
ABSOLUTE BASOPHIL [3]: 0 CELLS/uL
ABSOLUTE EOSINOPHIL [3]: 232.67 CELLS/uL
ABSOLUTE LYMPHOCYTE [3]: 11739.33 CELLS/uL
ABSOLUTE MONOCYTE [3]: 92.67 CELLS/uL
ABSOLUTE SEGMENTED NEUTROPHIL [3]: 1668.67 CELLS/uL
BASOPHIL [3]: 0%
EOSINOPHIL [3]: 1.67%
ERYTHROCYTE COUNT [3]: 5.23 x10E6/uL
HEMATOCRIT [3]: 33.7%
HEMOGLOBIN [3]: 12.47 G/DL
LEUKOCYTE COUNT [3]: 13.73 x10E3/uL
LYMPHOCYTE [3]: 85.67%
MEAN CORPUSCULAR HEMOGLOBIN [3]: 23.87 pg
MEAN CORPUSCULAR HEMOGLOBIN CONCENTRATION [3]: 36.97 G/DL
MEAN CORPUSCULAR VOLUME [3]: 64.5 fL
MONOCYTE [3]: 0.67%
NEUTROPHIL [3]: 12%
NUCLEATED RED BLOOD CELLS [3]: 0 /100WBC
PLATELET COUNT [3]: 1318 x10E3/uL
ALANINE AMINOTRANSFERASE [3]: 47 u/L
ALBUMIN [3]: 4.03 G/DL
ALKALINE PHOSPHATASE [3]: 451.67 u/L
ASPARTATE AMINOTRANSFERASE [3]: 88.67 u/L
BLOOD UREA NITROGEN [3]: 15 mg/dL
CARBON DIOXIDE [3]: 28 mmol/L
CHLORIDE [3]: 104.67 MEQ/L
CHOLESTEROL [3]: 64 mg/dL
CREATINE PHOSPHOKINASE [3]: 727.67 u/L
CREATININE [3]: 0.21 mg/dL
GLUCOSE [3]: 162.33 mg/dL
LACTATE DEHYDROGENASE [3]: 101 u/L
LIPASE [3]: 8.33 u/L
PHOSPHORUS [3]: 13 mg/dL
POTASSIUM [3]: 6.56 MEQ/L
SODIUM [3]: 146.33 MEQ/L
TOTAL BILIRUBIN [3]: 0.2 mg/dL
TOTAL PROTEIN [3]: 5.9 G/DL
URIC ACID [3]: 1.7 mg/dL

Source: ChEMBL document CHEMBL3885881, “DrugMatrix”
